Assay results: patent US11549123B2, “Plant EPSP synthases and methods of use” (PIONEER HI-BRED INTERNATIONAL, INC., priority 2015, dated 2023)
Where “and” joins values, the source holds several entries; their conditions need not be identical. Identical values can stand only once.

Molecular target: T1, Zea mays (maize) EPSPS, native, SEQ ID NO:1 (Table 10: SEQ ID NO:2) (Zea mays, UniProt O24566)
T1 sequence (O24566 with tags, fused parts or gaps): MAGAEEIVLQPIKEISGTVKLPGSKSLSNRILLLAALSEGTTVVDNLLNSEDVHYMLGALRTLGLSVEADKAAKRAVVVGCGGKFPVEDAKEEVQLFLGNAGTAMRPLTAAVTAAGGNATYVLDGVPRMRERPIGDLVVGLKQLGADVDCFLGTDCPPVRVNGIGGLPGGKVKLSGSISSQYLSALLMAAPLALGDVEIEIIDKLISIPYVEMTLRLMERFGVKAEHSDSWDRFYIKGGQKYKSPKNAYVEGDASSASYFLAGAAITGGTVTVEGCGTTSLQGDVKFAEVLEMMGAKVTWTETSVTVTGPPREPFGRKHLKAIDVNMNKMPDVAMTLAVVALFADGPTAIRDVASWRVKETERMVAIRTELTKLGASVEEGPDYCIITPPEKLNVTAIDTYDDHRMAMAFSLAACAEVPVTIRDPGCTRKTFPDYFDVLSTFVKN
Test: EPSPS substrate saturation kinetics (PEP varied, glyphosate inhibition), native maize
Assay type: biochemical
Description: The amino acid sequence of mature Zea mays EPSP synthase (EPSPS) was obtained from GenBank entry CAA44974.1 (NCBI GI No. 1524383; presented herein as SEQ ID NO:2). A nucleotide sequence was created to add an N-terminal methionine and to optimize codon usage for expression in E. coli. The synthetic gene was supplied by a commercial vendor. The gene was cloned into an expression vector that provides a T7 promoter driving expression of the protein. The vector was modified to change a 6×N-terminal histidine tag to a 10×tag. The resulting coding region of the vector yields an expressed protein with the amino acid sequence shown in Table 1 (represented by SEQ ID NO:1). The coding region is preceded by an N-terminal extension represented by SEQ ID NO:3.
Whether protein production was done in BL21(DE3) or with the Tuner AroA knockout, the vector was electroporated into cells and transformants were selected for growth on LB agar containing 100 ug carbennicillin/ml. Cells were grown in Magic Medium, in which induction occurs when the medium becomes depleted of glucose. After 4 hours of growth at 37° C., cells were transferred to 30° C. and grown another 16 hrs. Pelleted cells were lysed with BPER (Pierce) protein extraction reagent containing 0.2 mg/ml lysozyme, 1 mM dithiothreitol, protease inhibitor cocktail (Sigma, bacterial cocktail) and endonuclease. Insoluble cellular debris was removed by centrifugation. EPSPS protein was purified from the soluble protein solution by affinity chromatography on the nickel form of nitrilotriacetic acid (Ni-NTA) resin (Qiagen). Protein concentration was measured by absorbance at 280 nm using an extinction coefficient of 0.676 OD/mg/ml, provided by Vector NTI.
Shikimate-3-phosphate (S3P) was prepared from cultures of Klebsiella pneumonia aroA-(ATCC 25597). Cells from a 500 ml culture grown in 2×YT were used to inoculate 6 L of minimal medium augmented with 55 uM tyrosine, 60 uM phenylalanine, 25 uM tryptophan, 0.1 uM 4-aminobenzoate and 0.1 uM 4-hydroxybenzoate (Weiss et al., 1953. J Amer Chem Soc 75:5572-5576). Accumulation of S3P was monitored by anion exchange HPLC. After about 4 days shaking at 37 C, the concentration reached ˜1 mM. S3P was purified from the culture supernatant by anion exchange chromatography in ammonium bicarbonate at pH 7.3, with gradient elution up to 0.7 M. S3P was cleanly separated from phosphate, which eluted earlier.
EPSPS activity was determined by quantifying the phosphate generated from the EPSPS reaction. Release of inorganic phosphate was coupled to reaction with 2-amino-6-mercapto-7-methylpurine ribonucleoside, catalyzed by purine-nucleoside phosphorylase (M R Webb, Proc. Natl. Acad. Sci. 89:4884-4887, 1992). The absorbance change that occurs was monitored at 360 nm, where the extinction is 11,200 M^−1 cm^−1, with a Spectramax plate reader (Molecular Devices). To determine kinetic parameters, the varied substrate was present at seven concentrations (the eighth being the blank, containing no substrate) ranging from 4 to 400 uM and the unvaried substrate present at saturation. […] Reactions were monitored with a Spectramax plate reader. […]

SMILES | kcat (PEP varied, S3P saturating, pH 7) | kcat (Table 3, unit not given) | Km (read-out: KM (PEP), Table 3, unit inferred) | Ki | (kcat/KM)*KI (PEP as substrate, glyphosate as inhibitor)
C=C(OP(=O)(O)O)C(=O)O [PEP, phosphoenolpyruvate] | 1464 min⁻¹ | 1464 | 15.7 µM | – | –
O=C(O)CNCP(=O)(O)O [glyphosate, N-phosphonomethylglycine] | – | – | – | 0.13 µM | 11.8 and 12
